Results taken from PubChem BioAssay (NCI).
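Here, GI50 denotes the concentration required for 50% inhibition of growth. TGI: concentration producing complete growth inhibition.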

Key:
Assay in all cases: DTP human tumour cell line panel, 384-well format
MDA-MB-435 melanoma = test system: MDA-MB-435 melanoma
K-562 leukemia = test system: K-562 leukemia
SR leukemia = test system: SR leukemia
DU-145 prostate = test system: DU-145 prostate
MDA-MB-468 breast = test system: MDA-MB-468 breast
OVCAR-8 ovarian = test system: OVCAR-8 ovarian
NCI-H460 NSCLC = test system: NCI-H460 NSCLC
MDA-MB-231 breast = test system: MDA-MB-231 breast
ACHN renal = test system: ACHN renal
NCI-H522 lung = test system: NCI-H522 lung
RXF 393 renal = test system: RXF 393 renal
SK-MEL-28 melanoma = test system: SK-MEL-28 melanoma
HT29 colon = test system: HT29 colon
OVCAR-4 ovarian = test system: OVCAR-4 ovarian
UACC-257 melanoma = test system: UACC-257 melanoma
IGROV1 ovarian = test system: IGROV1 ovarian
SK-OV-3 ovarian = test system: SK-OV-3 ovarian
NCI-H322M lung = test system: NCI-H322M lung
SNB-75 CNS = test system: SNB-75 CNS
MOLT-4 leukemia = test system: MOLT-4 leukemia
MALME-3M melanoma = test system: MALME-3M melanoma
A549 NSCLC = test system: A549 NSCLC
T-47D breast = test system: T-47D breast
NCI-H23 lung = test system: NCI-H23 lung
EKVX NSCLC = test system: EKVX NSCLC
HOP-62 NSCLC = test system: HOP-62 NSCLC
HOP-92 NSCLC = test system: HOP-92 NSCLC
KM12 colon = test system: KM12 colon
CAKI-1 renal = test system: CAKI-1 renal
786-0 renal = test system: 786-0 renal
BT-549 breast = test system: BT-549 breast
CCRF-CEM leukemia = test system: CCRF-CEM leukemia
SF-539 CNS = test system: SF-539 CNS
SW-620 colon = test system: SW-620 colon
TK-10 renal = test system: TK-10 renal
OVCAR-3 ovarian = test system: OVCAR-3 ovarian
LOX IMVI melanoma = test system: LOX IMVI melanoma
SF-295 CNS = test system: SF-295 CNS
UACC-62 melanoma = test system: UACC-62 melanoma
SK-MEL-5 melanoma = test system: SK-MEL-5 melanoma
SN12C renal = test system: SN12C renal
MCF7 breast = test system: MCF7 breast
A498 renal = test system: A498 renal
HS 578T breast = test system: HS 578T breast
M14 melanoma = test system: M14 melanoma
COLO 205 colon = test system: COLO 205 colon
UO-31 renal = test system: UO-31 renal
HCT-15 colon = test system: HCT-15 colon
PC-3 prostate = test system: PC-3 prostate
HCT-116 colon = test system: HCT-116 colon
HCC-2998 colon = test system: HCC-2998 colon
SF-268 CNS = test system: SF-268 CNS
RPMI-8226 leukemia = test system: RPMI-8226 leukemia
NCI/ADR-RES ovarian = test system: NCI/ADR-RES ovarian
SNB-19 CNS = test system: SNB-19 CNS
HL-60(TB) leukemia = test system: HL-60(TB) leukemia
NCI-H226 lung = test system: NCI-H226 lung
U251 glioblastoma = test system: U251 glioblastoma

Q: Which results are given for `Cc1nnc(C[C@@H]2C=C(c3ccc(Cl)cc3)c3ccccc3-n3c(C)nnc32)o1`?
A: GI50 (MDA-MB-435 melanoma): 2.13 µM; TGI (MDA-MB-435 melanoma): 17.1 µM; GI50 (K-562 leukemia): 0.377 µM; TGI (K-562 leukemia): 15.4 µM; GI50 (SR leukemia): 0.0585 µM; TGI (SR leukemia): 0.371 µM; GI50 (DU-145 prostate): 5.28 µM; TGI (DU-145 prostate): 43 µM; GI50 (MDA-MB-468 breast): 1.5 µM; TGI (MDA-MB-468 breast): 16.4 µM; GI50 (OVCAR-8 ovarian): 0.246 µM; TGI (OVCAR-8 ovarian): 3.1 µM; GI50 (NCI-H460 NSCLC): 1.34 µM; TGI (NCI-H460 NSCLC): 18.7 µM; GI50 (MDA-MB-231 breast): 0.39 µM; TGI (MDA-MB-231 breast): > 100 µM; GI50 (ACHN renal): 1.96 µM; TGI (ACHN renal): 56.8 µM; GI50 (NCI-H522 lung): 0.25 µM; TGI (NCI-H522 lung): 2.95 µM; GI50 (RXF 393 renal): 2.6 µM; TGI (RXF 393 renal): 18.3 µM; GI50 (SK-MEL-28 melanoma): 0.987 µM; TGI (SK-MEL-28 melanoma): 36.7 µM; GI50 (HT29 colon): 0.267 µM; TGI (HT29 colon): 14.5 µM; GI50 (OVCAR-4 ovarian): 0.447 µM; TGI (OVCAR-4 ovarian): 4.91 µM; GI50 (UACC-257 melanoma): 7.05 µM; TGI (UACC-257 melanoma): 27.3 µM; GI50 (IGROV1 ovarian): 0.631 µM; TGI (IGROV1 ovarian): 15.2 µM; GI50 (SK-OV-3 ovarian): 0.393 µM; TGI (SK-OV-3 ovarian): 15.3 µM; GI50 (NCI-H322M lung): 0.492 µM; TGI (NCI-H322M lung): 37.6 µM; GI50 (SNB-75 CNS): 0.965 µM; TGI (SNB-75 CNS): > 100 µM; GI50 (MOLT-4 leukemia): 0.321 µM; TGI (MOLT-4 leukemia): 10.2 µM; GI50 (MALME-3M melanoma): 0.382 µM; TGI (MALME-3M melanoma): 19.3 µM; GI50 (A549 NSCLC): 0.989 µM; TGI (A549 NSCLC): 26.4 µM; GI50 (T-47D breast): 4.96 µM; TGI (T-47D breast): 57.9 µM; GI50 (NCI-H23 lung): 0.545 µM; TGI (NCI-H23 lung): 12.9 µM; GI50 (EKVX NSCLC): 17.5 µM; TGI (EKVX NSCLC): 66.8 µM; GI50 (HOP-62 NSCLC): 0.316 µM; TGI (HOP-62 NSCLC): 16.2 µM; GI50 (HOP-92 NSCLC): 0.595 µM; TGI (HOP-92 NSCLC): 45 µM; GI50 (KM12 colon): 1.69 µM; TGI (KM12 colon): 20.7 µM; GI50 (CAKI-1 renal): 0.0908 µM; TGI (CAKI-1 renal): 13.5 µM; GI50 ([…]-0 renal): 0.424 µM; TGI (786-0 renal): 20.8 µM; GI50 (BT-549 breast): 0.238 µM; TGI (BT-549 breast): 10 µM; GI50 (CCRF-CEM leukemia): 0.357 µM; TGI (CCRF-CEM leukemia): 12.5 µM; GI50 (SF-539 CNS): 1.65 µM; TGI (SF-539 CNS): 24.5 µM; GI50 (SW-620 colon): 10.4 µM; TGI (SW-620 colon): 22.7 µM; GI50 (TK-10 renal): 0.29 µM; TGI (TK-10 renal): 13.4 µM; GI50 (OVCAR-3 ovarian): 0.379 µM; TGI (OVCAR-3 ovarian): 12.9 µM; GI50 (LOX IMVI melanoma): 0.192 µM; TGI (LOX IMVI melanoma): 0.469 µM; GI50 (SF-295 CNS): 4.52 µM; TGI (SF-295 CNS): 32.6 µM; GI50 (UACC-62 melanoma): 0.076 µM; TGI (UACC-62 melanoma): 12.2 µM; GI50 (SK-MEL-5 melanoma): 0.695 µM; TGI (SK-MEL-5 melanoma): 17.7 µM; GI50 (SN12C renal): 12.5 µM; TGI (SN12C renal): 41.1 µM; GI50 (MCF7 breast): 0.087 µM; TGI (MCF7 breast): 21.4 µM; GI50 (A498 renal): 0.783 µM; TGI (A498 renal): 16.3 µM; GI50 (HS 578T breast): 0.0882 µM; TGI (HS 578T breast): 1.4 µM; GI50 (M14 melanoma): 0.935 µM; TGI (M14 melanoma): 38.8 µM; GI50 (COLO 205 colon): 0.487 µM; TGI (COLO 205 colon): 17.2 µM; GI50 (UO-31 renal): 0.676 µM; TGI (UO-31 renal): > 100 µM; GI50 (HCT-15 colon): 0.283 µM; TGI (HCT-15 colon): 10.4 µM; GI50 (PC-3 prostate): 0.996 µM; TGI (PC-3 prostate): 33.2 µM; GI50 (HCT-116 colon): 0.453 µM; TGI (HCT-116 colon): 17.9 µM; GI50 (HCC-2998 colon): 0.285 µM; TGI (HCC-2998 colon): 2.46 µM; GI50 (SF-268 CNS): 3.22 µM; TGI (SF-268 CNS): 24 µM; GI50 (RPMI-8226 leukemia): 0.059 µM; TGI (RPMI-8226 leukemia): 0.351 µM; GI50 (NCI/ADR-RES ovarian): 1.49 µM; TGI (NCI/ADR-RES ovarian): 12.5 µM; GI50 (SNB-19 CNS): 2.55 µM; TGI (SNB-19 CNS): 31.6 µM; GI50 (HL-60(TB) leukemia): 0.0346 µM; TGI (HL-60(TB) leukemia): 0.144 µM; GI50 (NCI-H226 lung): 0.294 µM; TGI (NCI-H226 lung): 17.4 µM; GI50 (U251 glioblastoma): 3.89 µM; TGI (U251 glioblastoma): 25 µM
